# Test results: patent publication US20130089869A1, “Methods For and Uses of Mechanical Stiffness Profiling of Cancer Cells” (DUKE UNIVERSITY, priority 2011, published 2013)
# How the values were obtained:
# Type in all cases: cell-based, Human
# IGROV [1] = assay: Matrigel invasion assay, IGROV cells; settings: blebbistatin 100 μM in top chamber, 18-24 hours, vs untreated
# Experimental: (§1) Cancer cells were seeded at a cell density of 25,000-70,000 on either Matrigel coated or uncoated filters and allowed to invade for 18-24 hours towards 10% FBS in the lower chamber. Cells invading and migrating through the Matrigel layer were visualized and counted as described^9. Percent cell migration or invasion was determined as the fraction of total cells that invaded through the filter. Blebbistatin (100 μM)^10 where used, was added to the top chamber of the transwell and migration and invasion allowed to proceed. Each assay was set up in duplicate, and each experiment was conducted at least 3 times with 4 random fields from a 10× magnification analyzed for each membrane.
# IGROV [2] = assay: Transwell migration assay, IGROV cells; settings: blebbistatin 100 μM in top chamber, vs untreated
# Experimental: as §1
# IGROV [3] = assay: Magnetic tweezers assay (3DFM) of cell stiffness, IGROV cells; settings: blebbistatin 100 μm added 30 mins before beads, vs untreated
# Experimental: (§2) The Three Dimensional Force Microscope (3DFM)^11 was used for applying controlled and precise 60-100 pN local force (FIG. 6) on 2.8 micron magnetic beads (DYNAL Biotech, Oslo, Norway) coated with fibronectin (Sigma Aldrich, St. Louis, Mo.). Briefly, cells were plated on coverslips followed by addition of the beads. Cells and beads were incubated for 30 minutes followed by force application and resultant bead displacements were recorded and analyzed. The displacement of the beads was recorded with high-speed video camera (Pulnix, JAI, Ca) and tracked using Video Spot Tracker (http://cismm.cs.unc.edu). The mean creep compliance was calculated from the tracked displacements as described. Spring constants were derived by fitting the compliance curves to a Jeffrey's model for viscoelastic liquids (FIG. 6). […]
# (§3) To further examine the relationship between cancer cell deformability and invasive potential, the effective shear modulus (here on referred to as the stiffness, k), of the cell was calculated by fitting a modified Kelvin Voigt model^12 to the compliance using a least squares fit (see FIG. 6). […] In addition, the variability in stiffness correlates directly with a specific measure of metastatic progression as determined using in vitro three-dimensional invasion assays.
# Ovca429TβRIII cells [4] = assay: Matrigel invasion assay, Ovca429TβRIII cells; settings: Ovca429TβRIII cells treated with blebbistatin, vs untreated
# Experimental: as §1
# Ovca429TβRIII cells [5] = assay: Magnetic tweezers assay (3DFM) of cell stiffness, Ovca429TβRIII cells; settings: Ovca429TβRIII cells treated with blebbistatin
# Experimental: as §2, §3
# IGROV [6] = assay: Viability of IGROV cells under blebbistatin; settings: concentration that disrupted cortical pMLC localization
# IGROV [7] = assay: Immunofluorescence of cortical pMLC localization, IGROV cells; settings: blebbistatin
# Experimental: Immunoflourescence was performed essentially as described previously^9 and images were obtained using a Nikon inverted microscope.
structure (smiles),measurement,setting,value
Cc1ccc2c(c1)C(=O)C1(O)CCN(c3ccccc3)C1=N2 (centres unmarked) [Blebbistatin],increase of cell invasion,IGROV [1],2.5 fold
same,increase of cell migration,IGROV [2],4 fold
same,decrease of cell stiffness,IGROV [3],2 fold
same,increase of invasiveness,Ovca429TβRIII cells [4],four fold
same,stiffness K (spring constant),Ovca429TβRIII cells [5],1.48 Pa
same,decrease of stiffness,Ovca429TβRIII cells [5]; vs untreated,two fold
same,effect on viability,IGROV [6],did not affect viability
same,cortical pMLC localization,IGROV [7],disrupted cortical pMLC localization
